Assay results taken from US20250188085A1, “COMPOSITIONS AND METHODS FOR INHIBITION OF RAS” (THERAS, INC., priority 2022, published 2025).
Where two headings read alike, the source gives them in different places.

Experiments:
[1] = biological target: T1, GppNHp-loaded KRAS4b (amino acids 1-169) G12C/C118S protein (Homo sapiens, UniProt P01116, C118S/G12C); test: Covalent cysteine 12 modification by MALDI-TOF MS, GppNHp-loaded KRAS G12C; format: binding; conditions: 15 minutes reaction time point
T1 construct: KRAS4b (amino acids 1-169) G12C/C118S protein; made in house
Method in brief: (§1)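 KRAS4b 1-169 G12C/C118S loaded with GDP, GppNHp or GTP was used at 1 μM in 20 mM HEPES, 150 mM NaCl, 1 mM MgCl2, pH 7.3, and incubated with compound (5 mM DMSO stock) at room temperature in the dark. % modification at 15 min is adduct peak height over total protein peak heights by linear-mode MALDI-TOF.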

[2] = biological target: T2, GDP-loaded KRAS4b (amino acids 1-169) G12C/C118S protein (Homo sapiens, UniProt P01116, C118S/G12C); test: Covalent cysteine 12 modification by MALDI-TOF MS, GDP-loaded KRAS G12C; format: binding; conditions: 15 minutes reaction time point
T2 construct: KRAS4b (amino acids 1-169) G12C/C118S protein; made in house
Method in brief: as §1

[3] = biological target: T3, Avi-KRAS G12C (1-169) GppNHp/RAF1 RBD-3×FLAG (52-151) (Homo sapiens, UniProt P01116, G12C); test: Raf1 RBD-KRAS G12C-GppNHp disruption (protein:protein interaction HTRF assay); format: biochemical
T3 construct: Avi-KRAS G12C (1-169) GppNHp/RAF1 RBD-3×FLAG (52-151)
Method in brief: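 HTRF measuring disruption of 50 nM Avi-KRAS G12C (1-169) loaded with GppNHp binding RAF1 RBD-3×FLAG (52-151), in pH 7.5 Tris buffer with 5 mM MgCl2, 0.1% BSA, 10% DMSO. KRAS preincubated with compound 1 h, then RBD 1 h, then detection reagents 1 h, all at room temperature. Compound titration 30-0.02 μM; activity expressed as percent of DMSO control.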

pERK in NCI-H358 cells = test: Cell-based pERK HTRF assay; conditions: 30 min incubation, read-out: pERK in NCI-H358 cell inhibition IC50
Method in brief: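 Cells seeded at 4×10^4/well in RPMI with 10% FBS, then next day treated for 30 min with a 9-point, 3-fold series from 75 μM top concentration at 0.25% DMSO. Lysates were read for pERK by HTRF (d2/Eu cryptate antibodies) after 4–24 h at room temperature, emission at 615 nm.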

[4] = biological target: T4, GTP-loaded KRAS4b (amino acids 1-169) G12C/C118S protein (Homo sapiens, UniProt P01116, C118S/G12C); test: Covalent cysteine 12 modification by MALDI-TOF MS, GTP-loaded KRAS G12C; format: binding; conditions: 15 minutes reaction time point
T4 construct: KRAS4b (amino acids 1-169) G12C/C118S protein; made in house
Description: Reaction: 1 μM of GppNHp-, GTP-, or GDP-loaded KRAS4b (amino acids 1-169) G12C/C118S protein (produced in-house by Protein Expression Laboratory, FNLCR/Leidos Biomed) in 20 mM 4-(2-hydroxyethyl)-1-piperazineethanesulfonic acid (HEPES) buffer containing 150 mM NaCl, 1 mM MgCl2, pH 7.3 was prepared freshly before assay. Ten-μL aliquots of protein were dispensed onto low volume 384-well plate, then 375 nL DMSO, and 25 nL of tested compounds from 5 mM DMSO stocks were added to appropriate wells using ECHO 555 acoustic liquid handler (Labcyte Inc.). For each reaction/assay, three blanks were prepared by mixing 10 μL of protein solution with 400 nL DMSO. The contents of the wells were carefully mixed by aspiration, and then each plate was sealed with an adhesive cover, centrifuged at 2000 g for 1 minute, and kept in the dark at room temperature until 5 min, 15 min, 30 min, or 2 h collections.
Target pretreatment: Before each assay MALDI target (Bruker MPT 384 ground steel BC) was pre-treated by pipetting on each spot 0.75 μL of saturated sinapinic acid in acetonitrile (ACN).
Sample preparation: At collection time point, 2 μL of reaction mixtures were pipetted out into 20 μL MALDI matrix solution (saturated solution of sinapinic acid in 1:1 ACN:water solution containing 0.75% trifluoroacetic acid (TFA)) deposited on 384 well polypropylene plate. Resulting solution was mixed by aspiration, centrifuged at 2000 g for 1 minute, then 1 μL aliquots were dispensed on pre-treated MALDI target using Beckman Coulter Biomek FXP 96/384-Span-8 Laboratory Automation Workstation. Finally, the MALDI target was dried under mild vacuum to produce spots with fine crystalline structure.
Measurements: MALDI-TOF measurements were performed on a Bruker Daltonics rapiflex Tissuetyper TOF-TOF mass spectrometer using linear mode and mass range from 18.6 to 21.6 kDa. Detector gain was set to 3.3× (483 V), sample rate to 5 GS/s, real time smoothing to medium (175 MHz), laser smart beam pattern was set to: “MS Thin Layer M5”, and the laser frequency was 10000 Hz. Spectra were automatically collected using custom Auto Xecute method. Laser power was auto adjusted using fuzzy control. The peak selection range was set to be between 19000 and 21500 Da. Peak evaluation uses half width parameter set to be smaller than 40 Da for processed spectrograms (centroid peak detection; smoothed by SavitzkyGolay algorithm using 7 m/z width and 2 cycles; baseline was subtracted using median algorithm with flatness 1 and median level 0.01). Fuzzy control used Proteins/Oligonucleotides protocol with minimum half width 1/10 times above threshold. Up to 40000 satisfactory shots were collected in 10000 shot steps. Dynamic termination was implemented to finish data collection when peak signal/noise ratio was reaching value of 50.
Spectra processing: Spectra were smoothed by SavitzkyGolay algorithm using 7 m/z width and three cycles. Centroid peak detection algorithm was used with signal to noise threshold set to 6, relative intensity threshold 4%, peak width 10 m/z and median baseline subtraction using flatness of 1 and median level of 0.01. Peak intensity and area under the peak were evaluated and recorded for all peaks between 19,300 Da and 21,550 Da.
Calculation of percent modification: Percent modification was calculated as a ratio of peak height for protein modified by compound to sum of peak height of remaining protein plus peak height for protein modified by compound. If multiple modifications were observed each was calculated as a ratio of peak height for given modification versus sum of peak heights for all observed protein species. Data reported in Table 5 are from 15 minutes reaction time point.

SMILES	GppNHp-KRAS G12C percent of modification [1]	GDP-KRAS G12C percent of modification [2]	IC50 [3]	IC50 (pERK in NCI-H358 cells; Homo sapiens, NCI-H358, 0.5 h)	GTP-KRAS G12C percent of modification [4]	IC50 (pERK in NCI-H358 cells)
C=CC(=O)N1CC[C@@H](Oc2nc(OC[C@@]34CCCN3C[C@H](F)C4)nc3c(F)c(-c4ccc(F)c5sc(N)c(C#N)c45)ccc23)[C@H]1CC [Compound 108]	C (10%≤modification <50%)	A (percent of modification ≥70%)	≤ 0.5 µM	≤ 0.1 µM	C (10%≤modification <50%)	
C=CC(=O)N1CC[C@@H](Oc2nc(OC[C@@]34CCCN3C[C@H](OC)C4)nc3c(F)c(-c4ccc(F)c5sc(N)c(C#N)c45)c(C(F)(F)F)cc23)[C@H]1C [Compound 99]	B (50≤percent of modification <70%)	B (50≤percent of modification <70%)	≤ 0.5 µM	≤ 0.1 µM	B (50≤percent of modification <70%)	
C=CC(=O)N1C[C@H](Oc2nc(OC[C@@]34CCCN3C[C@H](F)C4)nc3c(F)c(-c4ccc(F)c5sc(N)nc45)c(C(F)(F)F)cc23)C[C@@H]1CO [Compound 69]	A (percent of modification ≥70%)	A (percent of modification ≥70%)	≤ 0.5 µM	≤ 0.1 µM	C (10%≤modification <50%)	
C=CC(=O)N1CC[C@@H](Oc2nc(OC[C@@]34CCCN3C[C@H](F)C4)nc3cc(-c4ccc(F)c5sc(N)c(C#N)c45)c(F)cc23)[C@H]1C [Compound 109]	B (50≤percent of modification <70%)	A (percent of modification ≥70%)		≤ 0.1 µM	C (10%≤modification <50%)	
C=CC(=O)N1CC[C@@H](Oc2nc(OC[C@@H]3C[C@@H](F)CN3C)nc3c(F)c(-c4ccc(F)c5sc(N)nc45)c(C(F)(F)F)cc23)C1 (atropisomer, axis not shown) [Compound 19]	D (percent of modification <10%)	D (percent of modification <10%)	5 to 20 µM			> 1 µM
C=CC(=O)N1CC(Oc2nc(OC[C@@H]3C[C@@H](F)CN3C)nc3c(F)c(-c4ccc(F)c5sc(N)nc45)c(C(F)(F)F)cc23)C1 [Compound 23]	C (10%≤modification <50%)	B (50≤percent of modification <70%)	0.5 to 5 µM	0.1 to 1 µM		
C=CC(=O)N1CC[C@@H](Oc2nc(OC[C@]34CCCN3C[C@H](OC)C4)nc3c(F)c(-c4ccc(F)c5sc(N)nc45)c(C(F)(F)F)cc23)C1 (single isomer, unassigned) [Compound 30]	A (percent of modification ≥70%)	A (percent of modification ≥70%)	≤ 0.5 µM			≤ 0.1 µM
C=CC(=O)N1CC[C@@H](Oc2nc(OC[C@@]34CCCN3C[C@H](F)C4)nc3c(F)c(-c4ccc(F)c5sc(N)nc45)c(C(F)(F)F)cc23)C1 (single isomer, unassigned) [Compound 12]	D (percent of modification <10%)	D (percent of modification <10%)	0.5 to 5 µM			0.1 to 1 µM
C=CC(=O)N1C[C@H](Oc2nc(OC[C@@]34CCCN3C[C@H](F)C4)nc3c(F)c(-c4ccc(F)c5sc(N)nc45)c(C(F)(F)F)cc23)C[C@@H]1C (atropisomer, axis not shown) [Compound 33]	D (percent of modification <10%)	D (percent of modification <10%)	5 to 20 µM			> 1 µM
C=CC(=O)N1CC[C@@H](Oc2nc(OC[C@@H]3CC(C)(C)CN3C)nc3c(F)c(-c4ccc(F)c5sc(N)nc45)c(C(F)(F)F)cc23)C1 (atropisomer, axis not shown) [Compound 17]	D (percent of modification <10%)	D (percent of modification <10%)	> 20 µM			> 1 µM
C=CC(=O)N1CC(Oc2nc(OC[C@@H]3CCCN3C)nc3c(F)c(-c4ccc(F)c5sc(N)nc45)c(Cl)cc23)C1 [Compound 1]	C (10%≤modification <50%)	A (percent of modification ≥70%)	0.5 to 5 µM	0.1 to 1 µM		
C=CC(=O)N1CC[C@@H](Oc2nc(OC[C@@H]3CC4(CC4)CN3C)nc3c(F)c(-c4ccc(F)c5sc(N)nc45)c(C(F)(F)F)cc23)C1 (atropisomer, axis not shown) [Compound 24]	B (50≤percent of modification <70%)	A (percent of modification ≥70%)	≤ 0.5 µM			≤ 0.1 µM
C=CC(=O)N1CC[C@@H](Oc2nc(OC[C@@H]3C[C@@H](F)CN3C)nc3c(F)c(-c4ccc(F)c5sc(N)nc45)c(C(F)(F)F)cc23)C1 (atropisomer, axis not shown) [Compound 18]	C (10%≤modification <50%)	A (percent of modification ≥70%)	≤ 0.5 µM			≤ 0.1 µM
C=CC(=O)N1CC[C@@H](Oc2nc(OC[C@@H]3CC(C)(C)CN3C)nc3c(F)c(-c4ccc(F)c5sc(N)nc45)c(C(F)(F)F)cc23)C1 (atropisomer, axis not shown) [Compound 16]	C (10%≤modification <50%)	A (percent of modification ≥70%)	0.5 to 5 µM			0.1 to 1 µM
C=CC(=O)N1CC[C@@H](Oc2nc(OC[C@@]34CCCN3C[C@H](F)C4)nc3c(F)c(-c4ccc(F)c5sc(N)nc45)c(C(F)(F)F)cc23)[C@H]1C [Compound 29, 1-((2R,3R)-3-((7-(2-amino-7-fluorobenzo[d]thiazol-4-yl)-8-fluoro-2-(((2R,7aS)-2-fluorotetrahydro-1H-pyrrolizin-7a (5H)-yl)methoxy)-6-(trifluoromethyl)quinazolin-4-yl)oxy)-2-methylpyrrolidin-1-yl) prop-2-en-1-one]	A (percent of modification ≥70%)	A (percent of modification ≥70%)	≤ 0.5 µM	≤ 0.1 µM		
